Test results from PubChem BioAssay AID1996.
Values after ≈ are worked out from the molar mass of the structure shown.

Settings: buffer; pH 7.4; 200.0 µM

First: O=C(Cc1ccccc1)NCc1ccccn1
Second: Cl.O=C(CN1CCCC1)NCc1ccccc1
The solubility kinetic of the first is higher: > 33.9 µg/mL for the first, 32.6 µg/mL for the second.

Compared with `COc1ccccc1Oc1ccc2c(c1)C(=O)N(CC1CCCO1)C2=O` (stereo not given), `COc1ccc(C(=O)N(C)Cc2ccccc2F)cc1S(=O)(=O)N1CCCC1` is higher in solubility kinetic: 40.3 µg/mL (≈ 114 µM) for the first, > 61 µg/mL for the second.

`CC(=O)Nc1ccc(S(=O)(=O)N(C)c2ccc(OCCOc3ccccc3F)cc2)cc1` and `CN(CC(=O)Nc1ccc(F)cc1)C(=O)Cn1cnc2ccc([N+](=O)[O-])cc2c1=O` are within 1.5-fold of each other in solubility kinetic: 6.5 µg/mL (≈ 14.2 µM) for the first, 5.6 µg/mL (≈ 13.5 µM) for the second.

`CN(C)c1nc(-c2ccccc2)ns1` and `CN(C)C(=O)COc1ccc2c(-c3ccccc3)cc(=O)oc2c1` are within 1.5-fold of each other in solubility kinetic: 12.5 µg/mL (≈ 60.9 µM) for the first, 12.6 µg/mL (≈ 39 µM) for the second.

Compared with `C=Cc1ccc(Cn2c(=O)n(C)c(=O)c3sccc32)cc1`, `Cn1c(=O)c2c(ncn2CCC(=O)N/N=C/c2ccccc2)n(C)c1=O` is higher in solubility kinetic: 1 µg/mL (≈ 3.35 µM) for the first, > 53.2 µg/mL for the second.

First: O=C(COC(=O)C1=COCCO1)Nc1ccc(Cl)cn1
Second: O=C(COC(=O)C1=COCCO1)NCc1ccc(Cl)cc1
The solubility kinetic of the first is higher: > 44.8 µg/mL for the first, 44.7 µg/mL (≈ 143 µM) for the second.

First: O=C(Nc1cc([N+](=O)[O-])ccc1Cl)c1cccnc1
Second: O=C(Nc1ccc2[nH]c(=O)[nH]c2c1)c1cccc([N+](=O)[O-])c1
The solubility kinetic of the first is 22-fold higher: 26.4 µg/mL (≈ 95.1 µM) for the first, 1.2 µg/mL (≈ 4.02 µM) for the second.

`O=C(NCc1cccnc1)C(=O)NCC(c1ccco1)N1CCOCC1` (stereo not given) and `O=C(CCC1CCCCC1)NCc1cccnc1` cannot be ordered by solubility kinetic: > 53.8 µg/mL for the first, > 37 µg/mL for the second.

Going from `O=C(CSc1nncs1)Nc1nccs1` to `O=C(COc1cccc(F)c1)Nc1nc(-c2cccnc2)cs1`, the solubility kinetic falls from > 38.7 µg/mL to 7.3 µg/mL (≈ 22.2 µM).

Compared with `COc1ccc(C(O)Cn2ccsc2=NC(C)=O)cc1` (stereo not given), `COc1cccc(NC(=O)Nc2cccc(C)n2)c1` is 140-fold lower in solubility kinetic: 41.3 µg/mL (≈ 141 µM) for the first, 0.3 µg/mL (≈ 1.17 µM) for the second.

Compared with `CC(C)CCN1CCN(Cc2cccn2-c2cccnc2)CC1CCO` (stereo not given), `C/C(=C\c1ccccc1)CN1CCN(Cc2ccc(C)o2)C(CCO)C1` (stereo not given) is lower in solubility kinetic: > 53.5 µg/mL for the first, 42.2 µg/mL (≈ 119 µM) for the second.

First: Cc1cc(C)c(S(=O)(=O)NCCc2ccncc2)c(C)c1
Second: CCc1ccc(S(=O)(=O)NCc2csc(C)n2)cc1
The solubility kinetic of the first is lower: 19.7 µg/mL (≈ 64.7 µM) for the first, > 44.5 µg/mL for the second.

Going from `Cc1ccc(NC(=O)Nc2ccc(F)cc2F)c(OC(F)F)c1` to `Cc1ccc(NC(=O)CCCc2nc3ccccc3s2)c(O)c1`, the solubility kinetic rises from < 0.4 µg/mL to > 49 µg/mL.

First: CC(NC(=O)c1ccccc1[N+](=O)[O-])C1CC2CCC1C2 (stereo not given)
Second: CN=C(NC1CCCCC1)c1ccc([N+](=O)[O-])cc1
The solubility kinetic of the first is lower: 35.2 µg/mL (≈ 122 µM) for the first, > 39.2 µg/mL for the second.

Going from `Cc1onc(-c2c(Cl)cccc2Cl)c1C(=O)N=C(N)N1CCCC1` to `C=CCOc1c(Cl)cc(C(=S)N2CCCC2)cc1OCC`, the solubility kinetic falls from 12 µg/mL (≈ 32.7 µM) to 5.7 µg/mL (≈ 17.5 µM) (2.1-fold).

`CCc1ccc(C(N)=S)cc1` and `Cc1ccc(C(=O)NCc2ccc3c(c2)OCO3)cc1` cannot be ordered by solubility kinetic: > 24.8 µg/mL for the first, 34.8 µg/mL (≈ 129 µM) for the second.

First: CC(=O)c1cnc(-c2ccccn2)s1
Second: COC(=O)c1ccccc1Oc1cnc2ccccc2n1
The solubility kinetic of the first is lower: 28.3 µg/mL (≈ 139 µM) for the first, > 42 µg/mL for the second.

Going from `O=C(CN1CCc2ccccc2C1)NCC(=O)Nc1ccc(F)cc1` to `Cl.O=C(NC1CCN(Cc2ccccc2)CC1)c1cccc(S(=O)(=O)Nc2ccc(SC(F)F)cc2)c1`, the solubility kinetic rises from 17.1 µg/mL (≈ 50.1 µM) to 31.7 µg/mL (1.9-fold).

`CC(C)(C)NC(=O)C1CC(=O)N(CCc2ccc(F)cc2)C1` (stereo not given) and `CCC(C)NC(=O)C1CCC(=O)N1CCc1ccccc1` (stereo not given) cannot be ordered by solubility kinetic: > 46 µg/mL for the first, > 43.3 µg/mL for the second.

`O=C1c2ccc([N+](=O)[O-])cc2C(=O)N1c1ccc(Cl)cn1` and `CC(C(=O)O)c1ccc2c(c1)[nH]c1ccc(Cl)cc12` (stereo not given) cannot be ordered by solubility kinetic: > 45.5 µg/mL for the first, > 41.1 µg/mL for the second.

First: O=C(CN1C(=O)NC2(CCCCCCC2)C1=O)Nc1ccc(OC(F)F)cc1
Second: CC(=O)N1CCN(CC(=O)Nc2cc([N+](=O)[O-])ccc2Cl)CC1
The solubility kinetic of the first is 2.1-fold lower: 20.8 µg/mL (≈ 52.6 µM) for the first, 43.4 µg/mL (≈ 127 µM) for the second.

Going from `COc1cccc(C(=O)N2CCN=C2SC)c1` to `Br.O=C(O)c1ccccc1CSC1=NCCS1`, the solubility kinetic rises from 35.1 µg/mL (≈ 140 µM) to > 50.1 µg/mL.

Going from `COC(=O)C(Cc1ccc(O)cc1)NC(=O)NC12CC3CC(CC(C3)C1)C2` (stereo not given) to `CC(=O)OC(C(=O)NC1CCCCC1)c1cccc(F)c1` (stereo not given), the solubility kinetic rises from 27.5 µg/mL (≈ 73.8 µM) to > 44 µg/mL.

Compared with `O=C(CSc1cc(Cl)ccc1Cl)NCCCn1ccnc1`, `Nc1nc(Nc2cccc(Cl)c2)nc(NCCO)c1[N+](=O)[O-]` is 7-fold lower in solubility kinetic: 45.3 µg/mL (≈ 132 µM) for the first, 6.5 µg/mL (≈ 20 µM) for the second.

First: CN(Cc1cc2ccccc2[nH]c1=O)C(=O)COc1ccccc1
Second: Cc1onc(-c2ccccc2)c1C(O)c1ccc(F)cc1 (stereo not given)
The solubility kinetic of the first is lower: 13.8 µg/mL (≈ 42.8 µM) for the first, > 42.5 µg/mL for the second.

First: Cc1ccc(C(=O)N2c3ccccc3OCC2C)cc1 (stereo not given)
Second: Cc1nc2ccc(C(=O)Nc3ccc(N(C)C)cc3)cc2s1
The solubility kinetic of the first is 9-fold higher: 37 µg/mL (≈ 138 µM) for the first, 4.1 µg/mL (≈ 13.2 µM) for the second.

First: Fc1ccc(-c2nc(-c3cccs3)no2)cc1
Second: C#CCSc1nc(=O)c2cccnc2n1-c1ccc(C)cc1
The solubility kinetic of the first is lower: < 0.3 µg/mL for the first, > 46.1 µg/mL for the second.

Compared with `CCn1cc(S(=O)(=O)Nc2ncccn2)cn1`, `CCCC(=O)N/C(N)=N/c1nc2ccccc2o1` is lower in solubility kinetic: > 38 µg/mL for the first, 11.9 µg/mL (≈ 48.3 µM) for the second.

`CC1CCN(C(=O)CN(c2cccc(F)c2)S(C)(=O)=O)CC1` and `Cc1cc(C)cc(NC(=S)N2CCC(NC(=O)C3CC3)CC2)c1` cannot be ordered by solubility kinetic: > 49.3 µg/mL for the first, > 49.7 µg/mL for the second.

First: Cc1sc2ncnc(SCC(=O)N3CCCCC3)c2c1C
Second: CCCc1[nH]n(-c2nc3ccccc3s2)c(=O)c1C=NCCCOC
The solubility kinetic of the first is lower: 5.5 µg/mL (≈ 17.1 µM) for the first, > 53.8 µg/mL for the second.
